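Assay format: 96-well plates, 48-hour exposure. The concentration for 50% growth inhibition is given as GI50. TGI denotes the concentration required for complete inhibition of growth.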
Each compound was assayed on MDA-MB-468 breast (assay: DTP human tumour cell line panel, 48 h).

Structure (SMILES)	GI50 [nM]	TGI [nM]
Cn1nc(C(F)(F)F)c(-c2cc(C(F)(F)F)cc(C(F)(F)F)c2)c1-c1ccc(OCc2ccc(Cl)cc2)cc1O	1430	6360
C[C@H]1CNC(=O)c2cnn3ccc(nc23)N[C@H](C)c2cc(F)ccc2O1	1850	14600
CC(=O)O[C@H]1C(=O)[C@@]2(C)[C@H]([C@H](OC(=O)c3ccccc3)[C@]3(O)C[C@H](OC(=O)[C@H](OC(=O)OC[C@H]4COC(C)(C)O4)[C@@H](NC(=O)c4ccccc4)c4ccccc4)C(C)=C1C3(C)C)[C@]1(OC(C)=O)CO[C@@H]1C[C@@H]2O	27.3	
C[C@]12CC[C@H]3[C@@H](CC4SC(N)=NC45C/C(=N/NC(N)=O)CC[C@]35C)[C@@H]1CCC2=O (some centres undefined)	1600	3170
C=C1SC(=Nc2ccccc2Cl)N(C(=O)c2sc3ccccc3c2Cl)C12CCCCC2	4910	> 100000
C[n+]1c2ccccc2nc2ccccc21	711	2690
Cn1ccnc1C(=O)/C=C/c1ccc(CNC(=O)c2ccc(S(F)(F)(F)(F)F)cc2)cc1	3540	8710
CCCCCCCC(=O)SCC/C=C/[C@@H]1CC(=O)NCc2nc(cs2)C2=N[C@@](C)(CS2)C(=O)N[C@@H](C(C)C)C(=O)N1	< 11.9	1210
COC(=O)Nc1nc2ccc(C(=O)c3ccccc3)cc2[nH]1	338	> 100000
Cn1c(-c2ccccc2)c(/C=C/C2=[N+](C)c3ccccc3C2(C)C)c2ccccc21	343	2850
COc1ccc(/C(C#N)=C/c2cc(OC)c(OC)c(OC)c2)cc1	19200	> 100000
CCCCCCCCCCCCCC[n+]1ccc(C(N)=O)cc1	401	2760
Cc1cc(OCCOCCC(F)(F)P(=O)(O)O)ccc1CCc1cnc2c(N)nc3cc(CCC(=O)O)ccc3c2c1	> 100000	> 100000
O=C(Nc1ccc(F)cc1)Nc1ccc(Br)c(C(F)(F)F)c1	2220	9540
C=C1C(=O)O[C@H]2[C@H]1CC/C(COC(=O)CCCc1c[nH]c3ccccc13)=C\CC[C@@]1(C)O[C@@H]21	1760	4010
N#C/C(=N\Nc1ccccc1)C(=O)Nc1cc(-c2ccccc2)nn1-c1ccccc1	1420	5880
C[C@H]1COCCN1c1cc(C2(S(=O)(=O)C3CC3)CC2)nc(-c2ccc(NC(=S)NCCO)cc2)n1	< 10.8	93.6
O=C(CI)Nc1ccc(O)c2ccccc12	900	2570

Structure (SMILES)	GI50 [nM]	TGI [nM]
O=CN1N=C(c2cccc(Nc3ccnc4cc(Cl)ccc34)c2)CC1c1ccccc1 (centres undefined)	205	656
O=C1C(=O)c2ccccc2C(O)=C1CCCc1ccc(C2CCCCC2)cc1	2200	21500
CN(C)CCCC1(c2ccc(F)cc2)OCc2cc(-c3cc4ccccc4s3)ccc21 (centres undefined)	1740	3410
COc1ccc(/C=C2\SC(=Nc3ccccc3)NC2=O)cc1	3180	22000
COC(=O)c1c2c(c(C)[n+]([O-])c1C)C(=O)C=C(NCc1cccc(Cl)c1)C2=O	225	732
COc1ccc(NC(=O)c2sc3nc(C)c(C(=O)/C=C/c4cccc(OC)c4)cc3c2N)cc1	732	2240
COC1=CC(c2ccc[nH]2)=N/C1=C\c1[nH]c(C)c(CC(=O)OCc2ccccc2)c1C	595	2450
CCCCCCCCCCCCCCCCOP(=O)([O-])OCC[N+](C)(C)C	1160	3560
CC(C)=CC(=O)N[C@H]1CC[C@]2(C)C3CC[C@]4(C)C(C(C)N(C)C)=CCC4C3CCC2[C@H]1O (some centres undefined)	1650	6330
CC([C@H]1CC=C2C3CCC4=C[C@@H](N(C)C)CC[C@]4(C)C3CC[C@@]21C)N(C)C (some centres undefined)	1420	4720
O=C(/C=C1\C(=O)N(Cc2ccccc2)c2ccccc21)c1ccc(OCCN2CCCCC2)cc1	1920	3800
Cc1ccc2c(c1)C(=O)c1c-2c(OCCCN(C)C)nc2ccccc12	1430	3350
Nc1nc2cc(CC[C@H]3C[C@@H](n4ccc5c(N)ncnc54)[C@H](O)[C@@H]3O)ccc2cc1Br	234	7980
C=C1C(=O)O[C@H]2[C@H]1CC/C(COC(=O)OC/C1=C/CC[C@@]3(C)O[C@H]3[C@H]3OC(=O)[C@@H](CN(C)C)[C@@H]3CC1)=C\CC[C@@]1(C)O[C@@H]21	1350	4000
NC(N)=NC(N)=NCCCc1ccco1	81800	196000
Clc1ccc2nc(CI)c(CI)nc2c1	4700	19100
C=C1C(=O)O[C@H]2[C@H]1CC/C(Cn1cc(-c3ccc(F)cc3)nn1)=C\CC[C@@]1(C)O[C@@H]21	421	1580
